No end group written: not given here.

Results on ten sequences are retold here after patent US9347937B2, “Vaccine comprising Amb a 1 peptides for use in the treatment of ragweed allergy” (Circassia Limited, priority 2008, dated 2016).

Series [1] concerns blood basophils from ragweed allergic subjects. Put plainly: Histamine release assay (Immunotech Histamine Release Immunoassay kit). The conditions noted are these: for Subjects with histamine release >15% of positive control: 43 or 20 subjects, highest dose tested 10 μg/ml. The protocol: Peptides or combinations of peptides that induce histamine release frequently may be considered unsuitable for inclusion in the peptide vaccine.
Histamine release requires the crosslinking of adjacent specific IgE molecules on the surface of the basophil.
Histamine release from fresh peripheral whole blood from ragweed allergic subjects was evaluated. Peripheral blood basophils were used as a surrogate for tissue mast cells which were not practical to assay.
Histamine release in response to whole ragweed allergen extract was measured in each subject to confirm basophil sensitisation. A positive control, representing total histamine release, generated by freeze/thawing the cells twice, was included in each assay. A negative control for spontaneous histamine release was generated by incubating cells in buffer only.
The assay was performed using the Immunotech Histamine Release Immunoassay kit according to the manufacturer's instructions. Following the in vitro challenge of blood basophils with peptides, peptide mixes, whole allergen or buffer in microtitre plate wells, supernatants were removed and the histamine in the samples converted to acyl histamine. Acylated samples were tested by a competitive acyl histamine ELISA.
Peptides were assayed for their ability to induce histamine release over a 5 log 10 range (1 to 10,000 ng/ml). The concentration range assayed was selected based on theoretical in vivo doses of peptide that may be achieved during therapy. […] Whole ragweed allergen extract was used over a slightly higher concentration range (10 to 100,000 ng/ml).
Single measurements were performed for each dilution. After completion of the ELISA, individual histamine levels were determined by interpolation from the standard curve generated in the ELISA assay. Results from samples were adjusted to allow for dilution.

Series [2] is described as follows: In vitro solubility testing in an acidic environment. The format is physicochemical. The protocol: Accordingly, the inventors have determined that RGW03B is preferred over RGW03.
The modified peptides were tested for solubility and their ability to induce IL-10 from PBMC in the presence of the mixture of peptides identified in FIG. 1 (RGW01+RGW03B+RGW04A+RGW02+RGW05+RGW06A). Controls included the peptide mixture with no RGW07 variant and with whole Amb a 1 allergen.

The mark [3] stands for this setting: pH 2.97, Table 6, RGW07 and variants, acidic environment.
Setting [4] is: pH 2.97 0.1 mM HCl, 0.5% (w/v) 1-thioglycerol (ca. 46 mM), 230 mM trehalose.

On to AINNDKTIDGRGAKVE [RGW06A], for which, in series [1], the “Maximum histamine release (% of positive control at 10 μg/mL)” value was found to be 0%, the “Mean histamine release of 43 or 20 subjects as a % of positive control at 10 μg/mL” value was found to be 1% and the “Subjects with histamine release >15% of positive control” value is given as 0/43.

As to GEAAIKLTSSAGVLS [RGW07], the “solubility in an acidic environment” value in series [2] (acidic environment) is on record as “poor solubility”. Besides, the concentration in solution in series [2] (setting [3]) (solubility) was 700 µg/mL. Besides, in series [1], the “Maximum histamine release (% of positive control at 10 μg/mL)” value turned out to be 0%, the “Mean histamine release of 43 or 20 subjects as a % of positive control at 10 μg/mL” value is given as 1% and the “Subjects with histamine release >15% of positive control” value is given as 0/43.

For GMIKSNDGPPI [RGW01], in series [1], the “Maximum histamine release (% of positive control at 10 μg/mL)” value is given as 0%, the “Mean histamine release of 43 or 20 subjects as a % of positive control at 10 μg/mL” value is given as 1% and the “Subjects with histamine release >15% of positive control” value is given as 0/43.

On to GSSQIWIDHSSLSKS [RGW02], for which, in series [1], the “Maximum histamine release (% of positive control at 10 μg/mL)” value amounted to 0%, the “Mean histamine release of 43 or 20 subjects as a % of positive control at 10 μg/mL” value turned out to be 1% and the “Subjects with histamine release >15% of positive control” value is listed as 0/43.

Regarding KDLLENGAIFVTSG [RGW03], the solubility (in general, the dissolved amount per volume that the medium holds) in series [2] (setting [4]) was below 620 µg/mL.

For KEGTLRFAAAQNRP [RGW05], in series [1], the “Maximum histamine release (% of positive control at 10 μg/mL)” value amounted to 0%, the “Mean histamine release of 43 or 20 subjects as a % of positive control at 10 μg/mL” value came to 0% and the “Subjects with histamine release >15% of positive control” value is on record as 0/43.

Sequence KGEAAIKLTSSAGVLSK [RGW07C] came in with a solubility in series [2] (setting [3]) of 1550 µg/mL.

In series [2] (setting [3]), KGEAAIKLTSSAGVLSKK [RGW07D] had a solubility of 4260 µg/mL. Also, in series [1], the “Maximum histamine release (% of positive control at 10 μg/mL)” value amounted to 0%, the “Mean histamine release of 43 or 20 subjects as a % of positive control at 10 μg/mL” value is recorded as 3% and the “Subjects with histamine release >15% of positive control” value is given as 0/20.

Sequence RDLLENGAIFLPSG [RGW03B] displayed a solubility in series [2] (setting [4]) of 3850 µg/mL. Besides, in series [1], the “Maximum histamine release (% of positive control at 10 μg/mL)” value stood at 0%, the “Mean histamine release of 43 or 20 subjects as a % of positive control at 10 μg/mL” value is listed as 1% and the “Subjects with histamine release >15% of positive control” value is given as 0/43.

For SAGMIPAEPGEA [RGW04A], in series [1], the “Maximum histamine release (% of positive control at 10 μg/mL)” value came out at 0%, the “Mean histamine release of 43 or 20 subjects as a % of positive control at 10 μg/mL” value was 0% and the “Subjects with histamine release >15% of positive control” value is reported as 0/43.
